The values that follow come from publication PMC12104861, “Structural and mechanistic basis for the regulation of the chloroplast signal recognition particle by (p)ppGpp” (Febs Letters, 2025).

By Kd is commonly meant the equilibrium constant for the complex coming apart. Higher therefore signals lower affinity.

One test deals with T1, (cp)SRP54 (Arabidopsis thaliana, UniProt P37107).
T1 construct: gene FFC; residues 79-564 (transit peptide removed), NG and M domains, hexa-histidine tag kept, expressed in E. coli BL21(DE3) Rosetta
T1 sequence (P37107 79-564): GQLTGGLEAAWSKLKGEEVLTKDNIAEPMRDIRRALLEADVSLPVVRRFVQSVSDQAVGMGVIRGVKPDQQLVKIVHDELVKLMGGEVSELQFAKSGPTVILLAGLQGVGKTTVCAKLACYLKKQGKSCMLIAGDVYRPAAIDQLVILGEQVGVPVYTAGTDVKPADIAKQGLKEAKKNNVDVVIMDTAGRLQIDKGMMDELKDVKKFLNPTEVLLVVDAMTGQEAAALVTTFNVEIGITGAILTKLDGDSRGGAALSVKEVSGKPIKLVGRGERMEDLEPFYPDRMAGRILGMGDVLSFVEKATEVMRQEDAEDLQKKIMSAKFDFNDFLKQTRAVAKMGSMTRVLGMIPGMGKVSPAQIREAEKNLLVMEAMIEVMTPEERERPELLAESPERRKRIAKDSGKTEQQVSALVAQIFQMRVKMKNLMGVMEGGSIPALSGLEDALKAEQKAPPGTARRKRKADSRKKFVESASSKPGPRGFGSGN
Description: isothermal titration calorimetry. It counts as binding. An excerpt:
isothermal titration calorimetry on (cp)SRP54
(In general: In ITC the heat of successive injections is recorded.)

For test [1], the target named is T2, (cp)FtsY‐NG (Arabidopsis thaliana, UniProt O80842).
T2 construct: gene CPFTSY
T2 sequence (O80842 65-366): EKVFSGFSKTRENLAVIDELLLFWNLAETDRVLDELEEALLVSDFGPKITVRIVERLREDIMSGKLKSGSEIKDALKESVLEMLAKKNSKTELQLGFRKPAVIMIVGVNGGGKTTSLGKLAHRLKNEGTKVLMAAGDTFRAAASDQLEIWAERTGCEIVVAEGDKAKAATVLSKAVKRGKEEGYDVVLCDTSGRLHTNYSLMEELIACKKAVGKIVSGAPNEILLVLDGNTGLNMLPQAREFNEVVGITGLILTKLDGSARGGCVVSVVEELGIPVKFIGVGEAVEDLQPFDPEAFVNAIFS
The experiment in a line: isothermal titration calorimetry. It counts as binding. The text has this:
isothermal titration calorimetry on (cp)FtsY‐NG

The target in test [2] is T3, (cp)SRP54:FtsY‐NG complex (Arabidopsis thaliana, UniProt O80842+P37107).
T3 construct: gene FFC; GTPase heterodimer mixed from the two His-tagged proteins: SRP54 residues 79-564 and FtsY NG domain residues 65-366
T3 sequence (P37107 79-564): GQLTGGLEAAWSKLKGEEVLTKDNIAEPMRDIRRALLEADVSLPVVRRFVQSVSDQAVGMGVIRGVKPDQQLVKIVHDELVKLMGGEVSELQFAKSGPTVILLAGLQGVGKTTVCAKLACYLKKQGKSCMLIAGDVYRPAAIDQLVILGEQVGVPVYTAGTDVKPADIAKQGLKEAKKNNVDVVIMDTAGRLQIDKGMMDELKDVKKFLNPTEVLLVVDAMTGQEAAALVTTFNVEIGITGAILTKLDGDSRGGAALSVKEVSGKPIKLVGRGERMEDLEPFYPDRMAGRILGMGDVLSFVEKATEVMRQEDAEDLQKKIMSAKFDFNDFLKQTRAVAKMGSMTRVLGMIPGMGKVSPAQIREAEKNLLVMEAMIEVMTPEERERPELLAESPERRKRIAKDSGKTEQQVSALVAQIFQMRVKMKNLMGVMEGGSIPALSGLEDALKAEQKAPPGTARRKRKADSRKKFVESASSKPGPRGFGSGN
T3 sequence (O80842 65-366): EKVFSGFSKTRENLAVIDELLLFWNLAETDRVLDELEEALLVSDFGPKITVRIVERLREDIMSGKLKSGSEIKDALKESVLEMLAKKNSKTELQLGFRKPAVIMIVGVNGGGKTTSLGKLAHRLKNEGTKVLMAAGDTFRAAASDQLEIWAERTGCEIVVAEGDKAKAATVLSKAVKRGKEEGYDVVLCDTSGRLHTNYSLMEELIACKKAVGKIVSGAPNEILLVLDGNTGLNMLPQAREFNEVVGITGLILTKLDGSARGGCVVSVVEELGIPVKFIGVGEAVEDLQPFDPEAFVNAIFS
Description: HPLC GTP hydrolysis assay. Format: biochemical. To be noted: 10 μM each protein, 500 μM GTP, pH 7.5, 10 mM Mg(OAc)2, 37 °C.

For test [3], the target named is T3, (cp)SRP54:FtsY‐NG complex. Description: analytical size-exclusion chromatography of complex formation. It counts as binding. To be noted: nonhydrolysable GTP analogue promotes the heterodimer; 20 mM HEPES-K pH 7.5, 20 mM MgCl2.
In test [4] the target is T3, (cp)SRP54:FtsY‐NG complex. Description: HPLC GTP hydrolysis assay. Format: biochemical. To be noted: read-out: residual GTPase activity (% GTP hydrolysed) at 10 mM, 30 min.
The target in test [5] is T2, (cp)FtsY‐NG. Description: X-ray crystal structure, […] Å. To be noted: Mg2+; canonical guanosine nucleotide-binding site; 100 mM Tris pH 8.5, 25% PEG1000.
In test [6] the target is T4, chloroplast signal recognition particle 54 kDa protein, (cp)SRP54 (Arabidopsis thaliana, UniProt P37107 79-564).
T4 construct: Arabidopsis thaliana (cp)SRP54, UniProt P37107, residues 79-564; the methods give residues 79-564; source: E. coli BL21 (DE3) Rosetta, purified (HisTrap FF, EDTA incubation, SEC Superdex 200)
T4 sequence (looked up): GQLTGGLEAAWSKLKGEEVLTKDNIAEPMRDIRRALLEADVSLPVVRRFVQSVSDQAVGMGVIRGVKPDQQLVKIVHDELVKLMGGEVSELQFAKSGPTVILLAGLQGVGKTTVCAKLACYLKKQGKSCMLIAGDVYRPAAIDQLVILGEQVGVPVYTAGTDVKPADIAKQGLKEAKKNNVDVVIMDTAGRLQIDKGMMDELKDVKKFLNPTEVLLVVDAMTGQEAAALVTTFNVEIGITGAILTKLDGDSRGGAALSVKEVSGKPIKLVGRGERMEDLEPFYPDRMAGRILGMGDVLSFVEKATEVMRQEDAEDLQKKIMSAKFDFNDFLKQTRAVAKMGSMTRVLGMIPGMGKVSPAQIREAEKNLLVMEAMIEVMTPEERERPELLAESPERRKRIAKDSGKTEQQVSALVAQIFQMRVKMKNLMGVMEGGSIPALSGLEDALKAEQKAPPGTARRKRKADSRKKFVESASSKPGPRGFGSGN
The experiment in a line: SEC; analytical SEC, Superdex 200 Increase 10/300 GL; 100 uM of each protein in buffer C (20 mM HEPES-K pH 7.5, 200 mM NaCl, 20 mM KCl, 20 mM MgCl2) with increasing GppNHp; 30 min at room temperature; also 0.5 mM GppNHp with increasing ppGpp or pppGpp, which disrupt the complex. To be noted: both partners purified. (SEC sorts molecules by how far they enter the pores of the column.)

For `Nc1nc2c(ncn2[C@@H]2O[C@H](COP(=O)(O)OP(=O)(O)O)[C@@H](O)[C@H]2O)c(=O)[nH]1` [GDP], the Kd at (cp)SRP54 came out at 23.5 ± 2.29 µM; on (cp)FtsY‐NG [1] it was 7.71 ± 0.4 µM.
Take `Nc1nc2c(ncn2[C@@H]2O[C@H](COP(=O)(O)OP(=O)(O)OP(=O)(O)O)[C@@H](O)[C@H]2O)c(=O)[nH]1` [GTP]: the Kd was 51.8 ± 3.54 µM on (cp)SRP54 and 11.9 ± 2.44 µM at (cp)FtsY‐NG [1]. Further, the “HPLC GTP hydrolysis assay” value in test [2] is “significantly enhanced when in complex, hydrolysing nearly all available GTP”.
With `Nc1nc2c(ncn2[C@@H]2O[C@H](COP(=O)(O)OP(=O)(O)NP(=O)(O)O)[C@@H](O)[C@H]2O)c(=O)[nH]1` [GppNHp], the “analytical size-exclusion chromatography of complex formation” value in test [3] was “visualized the complex between (cp)SRP54 and (cp)FtsY‐NG at increasing concentrations of GppNHp”.
As to `Nc1nc2c(ncn2[C@@H]2O[C@H](COP(=O)(O)OP(=O)(O)O)[C@@H](OP(=O)(O)OP(=O)(O)O)[C@H]2O)c(=O)[nH]1` [ppGpp], in test [4], the remaining activity at 10000 µM was around 20%. In addition, the Kd worked out at 32.5 ± 5.38 µM at (cp)SRP54 and 7.36 ± 1.46 µM at (cp)FtsY‐NG [1]. Moreover, at (cp)FtsY‐NG [5], the “X-ray crystal structure, 1.99 Å” value is “solve the crystal structure of the truncated form of (cp)FtsY from A. thaliana”.
Turning to `Nc1nc2c(ncn2[C@@H]2O[C@H](COP(=O)(O)OP(=O)(O)OP(=O)(O)O)[C@@H](OP(=O)(O)OP(=O)(O)O)[C@H]2O)c(=O)[nH]1` [pppGpp], the remaining activity at 10000 µM in test [4] is around 20%. Besides, the figures for the Kd on (cp)SRP54 and on (cp)FtsY‐NG [1] were 47.8 ± 3.52 µM and 27.6 ± 3.64 µM, respectively.

B1: NG domain of the chloroplast SRP receptor (cp)FtsY, (cp)FtsY-NG (domain or fragment, Arabidopsis thaliana, UniProt O80842 65-366, looked up)
chain: EKVFSGFSKTRENLAVIDELLLFWNLAETDRVLDELEEALLVSDFGPKITVRIVERLREDIMSGKLKSGSEIKDALKESVLEMLAKKNSKTELQLGFRKPAVIMIVGVNGGGKTTSLGKLAHRLKNEGTKVLMAAGDTFRAAASDQLEIWAERTGCEIVVAEGDKAKAATVLSKAVKRGKEEGYDVVLCDTSGRLHTNYSLMEELIACKKAVGKIVSGAPNEILLVLDGNTGLNMLPQAREFNEVVGITGLILTKLDGSARGGCVVSVVEELGIPVKFIGVGEAVEDLQPFDPEAFVNAIFS
notes: source: E. coli BL21 (DE3) Rosetta, purified (HisTrap FF, EDTA incubation, SEC Superdex 200)
For B1, the binding result in test [6] is “binds”.
